# Test results: patent publication US8809233B2, “Ternary herbicidal compositions comprising aminopyralid and imazamox” (BASF SE, priority 2008, dated 2014)
# Read-outs that look alike come from different tables or passages of the source.
# Experiments:
# Type in all cases: in vivo
# Papaver rhoeas (PAPRH) = test: greenhouse post-emergence herbicidal activity on PAPRH
# Description: (§1) The test plants have been seeded, separately for each species, in plastic containers in sandy loamy soil containing 5% of organic matter.
# (§2) For the post emergence treatment, the plants were first grown to the 2 leaf station (GS 12). Here, the herbicidal compositions were suspended or emulsified in water as distribution medium and sprayed using finely distributing nozzels.
# (§3) The plants have been cultivated due to there individual requirements at 10-25° C. and 20-35° C. The plants were irrigated due to there necessity.
# (§4) The respective herbicides A and/or safener were formulated as 10% by weight strength suspension concentrate and introduced to the spray liquor with the amount of solvent system used for applying the active compound. Herbicide B and/or safener were used as commercially available formulations and introduced to the spray liquor with the amount of solvent system used for applying the active compound. In the examples, the solvent used was water.
# (§5) In the following experiments, the herbicidal activity for the individual herbicide compounds (solo and mixture applications), the herbicidal succession was assessed 14 days after treatment (DAT).
# (§6) The evaluation for the damage on undesired weeds caused by the chemical compositions was carried out using a scale from 0 to 100%, compared to the untreated control plants. Here, 0 means no damage and 100 means complete destruction of the plants.
# (§7) The value E, which is to be expected if the activity of the individual compounds is just additive, was calculated using the method of S. R. Colby (1967) “Calculating synergistic and antagonistic responses of herbicide combinations”, weeds 15, p. 22ff.
# (§8) [formula] where: X=effect in percent using herbicide A at an application rate a; Y=effect in percent using herbicide B at an application rate b; Z=effect in percent using herbicide C at an application rate c; E=expected effect (in %) of A+B+C at application rates a+b+c
# (§9) Tables 1 to 2 relate to the herbicidal activity, in greenhouse trials, of the individual actives and the combination in post-emergence application 14 DAT.
# Thlaspi arvense (THLAR) = test: greenhouse post-emergence herbicidal activity on THLAR
# Description: as §1, §2, §3, §4, §5, §6, §7, §8, §9
# [1] = tested on: Matricaria inodora (MATIN); test: greenhouse post-emergence herbicidal activity on MATIN; conditions: Tripleurospermum inodorum
# Description: as §1, §2, §3, §4, §5, §6, §7, §8, §9
# [2] = tested on: Capsella bursa-pasturis (CAPBP); test: greenhouse post-emergence herbicidal activity on CAPBP
# Description: as §1, §2, §3, §4, §5, §6, §7, §8, §9
# [3] = tested on: Mercurialis annua (MERAN); test: greenhouse post-emergence herbicidal activity on MERAN
# Description: as §1, §2, §3, §4, §5, §6, §7, §8, §9
# Viola arvensis (VIOAR) = test: greenhouse post-emergence herbicidal activity on VIOAR
# Description: as §1, §2, §3, §4, §5, §6, §7, §8, §9
# [4] = tested on: Matricaria chamomilla (MATCH); test: greenhouse post-emergence herbicidal activity on MATCH; conditions: 672 h, read-out: % activity 28 DAT
# Description: as §1, §2, §3
# as §4, with “water. […]” for “water.”
# The evaluation for the damage on undesired weeds caused by the chemical compositions was carried out using a scale from 0 to 100%, compared to the untreated control plants. […]
# The value E, which is to be expected if the activity of the individual compounds is just additive, was calculated using the method of S. R. Colby (1967) “Calculating synergistic and antagonistic responses of herbicide combinations”, weeds 15, p. […]
smiles,measurement,setting,value
"COCc1cnc(C2=NC(C)(C(C)C)C(=O)N2)c(C(=O)O)c1 (racemic) [imazamox, 2-[(RS)-4-isopropyl-4-methyl-5-oxo-2-imidazolin-2-yl]-5-methoxymethylnicotinic acid]",inhibition at 20 g/ha,"Papaver rhoeas (PAPRH); PAPRH, solo application, use rate 20 g ai/ha",35%
same,inhibition at 20 g/ha,"Thlaspi arvense (THLAR); THLAR, solo application, use rate 20 g ai/ha",90%
same,inhibition at 20 g/ha,"[1]; MATIN, solo application, use rate 20 g ai/ha",65%
same,inhibition at 20 g/ha,"[2]; CAPBP, solo application, use rate 20 g ai/ha",90%
same,inhibition at 10 g/ha,"[2]; Table 2, CAPBP, solo application, use rate 10 g ai/ha (imazamox), read-out: % activity",80%
same,inhibition at 20 g/ha,"[3]; MERAN, solo application, use rate 20 g ai/ha",90%
same,inhibition at 20 g/ha,"Viola arvensis (VIOAR); VIOAR, solo application, use rate 20 g ai/ha",0%
"Nc1cc(Cl)nc(C(=O)O)c1Cl [aminopyralid, 4-amino-3,6-dichloropyridine-2-carboxylic acid]",inhibition at 2.5 g/ha,[4],40%
same,inhibition at 5 g/ha,[4],75%
same,inhibition at 2.5 g/ha,Papaver rhoeas (PAPRH); read-out: % activity,0%
same,inhibition at 5 g/ha,Papaver rhoeas (PAPRH); read-out: % activity,15%
same,inhibition at 2.5 g/ha,Thlaspi arvense (THLAR); read-out: % activity,30%
same,inhibition at 2.5 g/ha,[1]; read-out: % activity,35%
same,inhibition at 5 g/ha,[1]; read-out: % activity,60%
same,inhibition at 2.5 g/ha,[2]; read-out: % activity,0%
same,inhibition at 5 g/ha,[2]; read-out: % activity,10%
same,inhibition at 10 g/ha,[2]; read-out: % activity,25%
same,inhibition at 2.5 g/ha,[3]; read-out: % activity,70%
same,inhibition at 2.5 g/ha,Viola arvensis (VIOAR); read-out: % activity,10%
same,inhibition at 5 g/ha,Viola arvensis (VIOAR); read-out: % activity,10%
O=C(O)c1nc(Cl)ccc1Cl [clopyralid],inhibition at 30 g/ha,"[2]; Table 2, CAPBP, solo application, use rate 30 g ai/ha",0%
same,inhibition at 120 g/ha,"[2]; Table 2, CAPBP, solo application, use rate 120 g ai/ha",10%
Cc1cccc(C)c1N(Cn1cccn1)C(=O)CCl [metazachlor],inhibition at 187 g/ha,"Papaver rhoeas (PAPRH); PAPRH, solo application, use rate 187 g ai/ha",30%
same,inhibition at 187 g/ha,"Thlaspi arvense (THLAR); THLAR, solo application, use rate 187 g ai/ha",0%
same,inhibition at 187 g/ha,"[1]; MATIN, solo application, use rate 187 g ai/ha",60%
same,inhibition at 187 g/ha,"[2]; CAPBP, solo application, use rate 187 g ai/ha",0%
same,inhibition at 187 g/ha,"[3]; MERAN, solo application, use rate 187 g ai/ha",15%
same,inhibition at 187 g/ha,"Viola arvensis (VIOAR); VIOAR, solo application, use rate 187 g ai/ha",15%
